{"source": "patent US5545669A", "about": "“Anti-inflammatory compounds” (priority 1994, dated 1996)", "key": {"[1]": {"system": "mouse bone marrow-derived mast cells", "assay": "Assay (e): arachidonate content of cellular phospholipids", "type": "cell-based", "conditions": "24-48 hours in culture", "procedure": "The following is the method for assessing the ability of a compound to alter arachidonate content of cellular phospholipids, which can be generalized for any desired cell. Specifically, mouse bone marrow-derived mast cells are removed from culture and provided with exogenous [^3 H]arachidonic acid for 30 minutes. The labeled arachidonic acid which had not been incorporated into the cells is then removed by washing the cells 2 times with an albumin-containing buffer. At that point, the cells are treated with various concentrations of CoA-IT inhibitors and then placed back in culture for 24-48 hours. The phospholipids are extracted by the method of Bligh and Dyer [Can. J. Biochem. Physiol. (1959) 37,911-917] and phospholipids separated by normal phase HPLC by the method of Chilton [Methods Enzymol. (1990)187, 157-166]. The radioactive and mole quantities of arachidonate in complex lipids are determined. At this point, cellular lipid extracts are treated with KOH (0.5M) to remove fatty acids from complex lipids (phospholipids) and the quantities of arachidonate in these extracts can then be determined by various methods, including gas chromatography and mass spectrometry (Chilton [Methods Enzymol. (1990)187, 157-166])."}, "human neutrophils": {"system": "human neutrophils", "assay": "Assay (e): mobilization of labeled arachidonic acid into 1-ether phospholipids in intact cells", "type": "cell-based", "conditions": "non-stimulated human neutrophils, 2 hrs", "procedure": "Measurement of the effect of CoA-IT inhibitors on the transfer of [^3 H]arachidonate into 1-ether phospholipids in non-stimulated inflammatory cells can be accomplished by general application of the following specific method. Human neutrophils were isolated and resuspended (5×10^7 /ml) in Hanks Balanced Salt Solution (HBSS; Gibco). [5,6,8,9,11,12,14,15-^3 H]-Arachidonic acid (100 Ci/mmol; New England Nuclear) complexed to 200 μl HBSS containing 0.25 mg/ml HSA was added to the cell suspension (1 μCi/ml). The cells were incubated with gentle shaking at 37° C. for 5 min. The reaction was terminated by the addition of 40 ml ice-cold HBSS containing HSA (0.25 mg/ml). The cells were then removed from the supernatant fluid by centrifugation (225 g, 8 min). Unincorporated [^3 H]-arachidonic acid was completely removed by two more washes of HBSS containing 0.25 mg/mi HSA. The neutrophils were resuspended in fresh buffer, exposed to various concentrations of a CoA-IT inhibitor or its vehicle and incubated without stimulation for 2 hrs. […] The phospholipid subclasses were separated by TLC in benzene/hexane/ethyl ether (50:45:4, v/v), located by image analysis (Bioscan) and the amount of radioactivity in each class was determined by zonal scraping and liquid scintillation counting."}}}
{"smiles": "O=C(O)c1ccccc1Oc1ccc(C(F)(F)F)cc1NS(=O)(=O)c1cc(C(F)(F)F)cc(C(F)(F)F)c1", "note": "[Example 1, 2-[2-[3,5-Bis(trifluoromethyl)phenylsulfonamido]-4-trifluoromethylphenoxy]benzoic acid]", "values": [{"measurement": "decreasing the arachidonic content", "setting": "[1]", "result": "positive activity"}, {"measurement": "blocking the movement of arachidonic acid into 1-ether phospholipids", "setting": "human neutrophils", "result": "positive activity"}]}
